Results from US20240360091A1, “GLUN2B-SUBUNIT SELECTIVE ANTAGONISTS OF THE N-METHYL-D-ASPARTATE RECEPTORS WITH ENHANCED POTENCY AT ACIDIC PH” (Emory University, priority 2021, published 2024).

Key:
clinical = details: human, plasma, intravenous
Experimental: Subjects checked into the clinic on Day 1 and remained in the clinic through the 48 h post-dose blood draw on Day 7, after which time they were discharged. Subjects returned to the clinic for a follow-up visit at Day 9. […] Dose levels included 25, 50 and 100 mg.
Collection tubes containing K2EDTA were be used to collect 5 mL of whole blood sample at each time point. Immediately after collection, tubes were inverted to mix the anticoagulant with the blood sample. Tubes were then centrifuged at a speed of approximately 3000 g force for 10 minutes at 4° C. Within 5 minutes of centrifugation the plasma fraction was transferred into two equal aliquots (1.25 mL each) into 2 mL cryovials and then frozen and stored at −70° C.
The method was adapted and used to measure plasma samples by TMD Pharmaceutical Research (Newark, DE). […] Analytes were detected by multiple reaction monitoring using an MDS Sciex API 4000 mass spectrometer (AB Sciex, Framingham, MA) in positive mode.
The pharmacokinetic analysis was performed based on the non-compartmental analysis approach (M. Garibaldi and D Perrier, Pharmacokinetics 2nd Edition, Chapter 11, Marcel Dekker Inc., New York, 1982) using MS Excel®.

[1] = Liver microsome stability, mouse; type: in vitro ADME; details: 1 μM, with cofactors, one-hour incubation at 37° C.
Experimental: Metabolic stability was assessed using human and mouse liver microsomes (Xenotech, USA). The final composition of the assay included 1 μM of the test compound or reference standards (imipramine and diclofenac sodium) prepared from DMSO or acetonitrile stock, so that the final concentration of DMSO and acetonitrile was 0.2% and 0.8%, respectively. The test compound was incubated with 0.5 mg/mL microsomal protein without (100 mM potassium phosphate buffer alone, pH 7.4) or with cofactors (5.0 mM glucose-6-phosphate, 0.06 U glucose-6-phosphate dehydrogenase, 2.0 mM MgCl2, 1.0 mM NADP^+/NADPH). The test compound and standards were incubated at 37° C. with human and mouse liver microsomes; aliquots of the reaction mixture (100 μL) were removed at 0, 5, 15, 30, 60 and 120 min. The reaction in the aliquots was stopped by the addition of 2.5 mL tert-butyl methyl ether and the samples were subjected to shaking for 15 min. […] The percent of the test compound remaining after the specified incubation period was calculated with respect to the peak areas of the test compound at time 0 min.
The compound and standards were incubated with human and mouse liver microsomes with or without cofactors, and the samples were extracted and analyzed using LC-MS/MS, as described above.

[2] = Plasma protein binding, rapid equilibrium dialysis, human; type: in vitro ADME; details: n=2
Experimental: Plasma protein binding was performed with a rapid equilibrium dialysis (RED) device containing dialysis membrane with a molecular weight cut-off of 8,000 Daltons according to the manufacturer's instructions (ThermoFisher, USA). The plasma samples (pH 7.4) and the test compound solution (1 or 5 μM) or reference standards (Warfarin and Propranolol, 10 μM) were combined (DMSO final conc 0.1%). 300 μL of this spiked plasma sample was added to the sample chamber, and 500 μL of blank PBS buffer (pH 7.4) was added into the buffer chamber. The RED device was sealed with adhesive film and then incubated at 37° C. with shaking at 300 rpm for 4 h. Following incubation, an aliquot (50 μL) was removed from each well (spiked plasma and buffer side) and diluted with equal volume of the corresponding opposite matrix (blank buffer or blank plasma) to nullify the matrix effect, and then extracted for analysis by LC-MS/MS. The amount of free material was determined by:
% Free=(LC-MS/MS peak area of test compound in buffer side/LC-MS/MS peak area of test compound in plasma side)×100%

5-HT1D = 5-HT1D (Homo sapiens (Human), UniProt P28221); experiment: Off-target radioligand binding displacement (NIMH PDSP); details: pH 7.4
Experimental: Briefly, the compound was submitted to the NIMH PDSP and screened at a single concentration (10 μM) of test article under equilibrium conditions for ability to displace specific radioligands from binding to their targets expressed in mammalian cell membranes in vitro. Each receptor target was assayed in quadruplicate and the % inhibition of radioligand binding at each target determined at pH 7.4. […]

[3] = tested on: MCAO model of transient ischemia in mice; experiment: In vivo model of transient focal ischemia, middle cerebral artery occlusion (MCAO); design: species or system mouse; details: for infarct volume: 24 hours post reperfusion
Experimental: All protocols involving animals were approved by the Georgia State University IACUC, an AAALAC accredited program, and was under the supervision of a licensed veterinarian. Mice were group housed, provided nestlets and shelters with access to food pellets and water ad libitum under a 12-hour light/dark cycle. Mice were brought to a separate room and housed for at least 30 min prior to initiation of the surgery.
Mice (C57B16, >90 days old, Jackson Labs) were subjected to transient (60 min) middle cerebral artery occlusion (MCAO) and the infarct volume measured 24 hours post reperfusion, similar as previously described (Yuan, et al., Neuron, 2015, 85(6):1305-1318). Male mice were used for this experiment to reduce potential confound by progesterone variation through estrous cycles, which can have neuroprotective actions. Briefly, transient ischemia was induced in anesthetized (2% isoflurane/98% O2) mice by insertion of an intraluminal suture into the MCA for 60 minutes (Junge, et al., Proc NatlAcad Sci USA, 2003, 100: 13019-13024). The body temperature of each mouse was monitored with a rectal thermometer and maintained at 37° C. through use of a homeothermic blanket. Changes in local cerebral blood flow were monitored with a laser Doppler flowmeter probe (Perimed) secured via glue to the skull 4-6 mm lateral and 2 mm posterior of bregma. An 11-mm 5-0 Dermalon or Look (SP185) black nylon non-absorbable suture with the tip flame-rounded was introduced into the left internal carotid artery through the external carotid artery stump up to 10.5-11 mm of suture insertion. Only mice with a reduction in blood flow to <20% for 60 min and with recovery of blood flow to >90% following removal of the suture were progressed to complete the study. Following the occlusion period, mice were placed back in their cages on a warming blanket (37° C.) for several hours and monitored for righting reflex and ability to ambulate upon a gentle touch. At 24 hours post occlusion, mice were euthanized by isoflurane overdose, the brain quickly removed and cut into 2 mm sections and incubated in 2% 2,3,5-triphenyltetrazolium chloride (TTC) in phosphate buffered saline (pH 7.4) at 37° C. for 20 min, then placed at 4° C. for imaging. The infarct area was then measured using the NIH IMAGE software (Scion Corporation, Beta 4.0.2 release). The lesioned area of each section was determined by digital threshold reductions in TTC staining to ≤20% lower intensity than that observed in the contralateral cortex. The infarct region was then manually outlined with a curser and the cubic volume of the infarct determined for each slice, then summed across all four slices from each animal to obtain total infarct volume. […]

GluN2D = GluN2D (Homo sapiens (Human), UniProt O15399); experiment: Two electrode voltage-clamp recordings, single concentration, GluN2D; type: cell-based; details: pH 6.9
Sequence of GluN2D (O15399 28-1336, other chains not shown): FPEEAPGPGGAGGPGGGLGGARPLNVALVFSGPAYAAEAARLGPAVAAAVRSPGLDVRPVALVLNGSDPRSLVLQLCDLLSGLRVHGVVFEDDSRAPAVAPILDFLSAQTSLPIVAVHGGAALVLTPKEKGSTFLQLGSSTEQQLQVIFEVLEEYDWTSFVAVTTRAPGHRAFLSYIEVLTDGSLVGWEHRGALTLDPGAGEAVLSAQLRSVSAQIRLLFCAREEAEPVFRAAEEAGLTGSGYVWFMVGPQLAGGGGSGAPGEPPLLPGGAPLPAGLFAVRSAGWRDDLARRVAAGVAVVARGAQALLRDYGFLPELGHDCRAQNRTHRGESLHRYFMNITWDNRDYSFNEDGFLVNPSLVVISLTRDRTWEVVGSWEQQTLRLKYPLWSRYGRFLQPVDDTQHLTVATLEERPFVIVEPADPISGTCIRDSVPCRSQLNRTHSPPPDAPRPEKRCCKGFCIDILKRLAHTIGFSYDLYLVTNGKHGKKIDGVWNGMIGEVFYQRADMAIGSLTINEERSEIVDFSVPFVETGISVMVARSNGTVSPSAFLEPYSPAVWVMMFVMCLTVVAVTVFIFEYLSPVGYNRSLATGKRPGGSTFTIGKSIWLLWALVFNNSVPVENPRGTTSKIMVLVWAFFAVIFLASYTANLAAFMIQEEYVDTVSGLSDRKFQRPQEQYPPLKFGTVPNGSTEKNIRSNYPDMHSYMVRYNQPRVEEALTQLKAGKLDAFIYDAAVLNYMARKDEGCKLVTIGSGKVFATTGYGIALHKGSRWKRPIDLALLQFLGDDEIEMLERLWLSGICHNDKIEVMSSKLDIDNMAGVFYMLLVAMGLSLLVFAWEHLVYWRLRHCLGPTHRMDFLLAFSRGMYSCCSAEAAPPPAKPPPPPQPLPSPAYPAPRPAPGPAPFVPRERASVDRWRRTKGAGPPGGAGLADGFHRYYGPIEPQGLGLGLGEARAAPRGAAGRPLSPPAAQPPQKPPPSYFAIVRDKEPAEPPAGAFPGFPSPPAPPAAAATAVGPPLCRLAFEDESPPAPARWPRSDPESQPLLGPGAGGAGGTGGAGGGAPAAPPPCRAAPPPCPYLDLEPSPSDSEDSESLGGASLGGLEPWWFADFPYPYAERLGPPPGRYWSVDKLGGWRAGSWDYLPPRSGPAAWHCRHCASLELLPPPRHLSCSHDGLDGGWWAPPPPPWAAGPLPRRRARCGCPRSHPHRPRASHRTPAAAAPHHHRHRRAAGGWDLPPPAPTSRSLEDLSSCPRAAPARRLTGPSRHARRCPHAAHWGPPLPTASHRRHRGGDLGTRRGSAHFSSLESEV

Sequence of 5-HT1D (P28221 whole entry, species assumed, the tested form may be a part): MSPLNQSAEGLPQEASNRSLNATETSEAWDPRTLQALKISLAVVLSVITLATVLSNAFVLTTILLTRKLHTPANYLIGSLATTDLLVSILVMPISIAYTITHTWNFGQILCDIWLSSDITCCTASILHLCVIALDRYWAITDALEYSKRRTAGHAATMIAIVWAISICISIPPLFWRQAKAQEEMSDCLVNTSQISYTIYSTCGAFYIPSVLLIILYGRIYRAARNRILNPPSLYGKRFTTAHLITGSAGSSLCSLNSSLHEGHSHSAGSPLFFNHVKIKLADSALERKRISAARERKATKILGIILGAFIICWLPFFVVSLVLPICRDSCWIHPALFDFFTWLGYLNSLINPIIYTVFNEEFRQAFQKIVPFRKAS

Question: With `O=C1CCc2cc(OC[C@H](O)CN3CCN(c4ccc(C(F)(F)F)cc4)CC3)ccc2N1` [NP10679] as the compound, how does the Cmax (clinical; 25 mg) read?
Answer: 0.213 ± 0.026 µg/mL

Question: And the Tmax (clinical; 25 mg)?
Answer: 0.5 h

Question: And the half-life (clinical; 25 mg)?
Answer: 15.4 to 36.2 h

Question: And the Cmax (clinical; 50 mg)?
Answer: 0.394 ± 0.072 µg/mL

Question: And the Tmax (clinical; 50 mg)?
Answer: 1 ± 0.4 h

Question: And the half-life (clinical; 50 mg)?
Answer: 15.5 to 25.6 h

Question: And the half-life (clinical; 100 mg)?
Answer: 12.5 to 34 h

Question: And the “percent remaining in mouse liver microsomes” value [1]?
Answer: 54%

Question: What about the “bound to human plasma proteins” value [2] of the same compound?
Answer: 97.7%

Question: And the Ki (5-HT1D)?
Answer: 2.29 µM

Question: What about the infarct volume ([3]; 5 mg/kg IP) of the same compound?
Answer: 56±6.6 mm^3

Question: And the infarct volume ([3]; 10 mg/kg IP)?
Answer: 49±3.0 mm^3

Question: And the “maximum infarct volume reduction” value ([3]; IP dose prior to 60 min MCAO)?
Answer: 52%

Question: What about the ED50 ([3]; Mus musculus, 1 h, IP dose prior to 60 min MCAO, read-out: ED50 for infarct volume reduction) of the same compound?
Answer: 1 mg/kg

Question: And the “off-target inhibition against GluN2D” value (GluN2D; 3 μM)?
Answer: no noticeable off-target inhibition

Question: And the GluN2D % residual (GluN2D; % current remaining after 3 μM compound)?
Answer: 98.3 (pH 6.9) %
